Laboratory results: patent US7902156B2 (Angiochem Inc., priority 2005, dated 2011)
Read-outs that look alike come from different tables or passages of the source. Residues, ends and D or L forms follow the SMILES beside them. No end group written: not given here.

Tests used:
[1] = test system: in vitro model of the BBB (co-culture of bovine brain capillary endothelial cells and rat glial cells); experiment: First level screening: peptide passage in the in vitro BBB model, Coomassie blue detection; settings: 90 minutes at 37° C.
From the text: An in vitro model was used for screening assay and for mechanistic studies of drug transport to the brain. […] The model consists of a co-culture of bovine brain capillary endothelial cells and rat glial cells. It presents ultrastructural features characteristic of brain endothelium including tight junctions, lack of fenestration, lack of transendothelial channels, low permeability for hydrophilic molecules and a high electrical resistance.
The in vitro model of BBB was established by using a co-culture of BBCECs and astrocytes. Prior to cell culture, plate inserts (Millicell-PC 3.0 μM; 30-mm diameter) were coated on the upper side with rat tail collagen. They were then set in six-well microplates containing the astrocytes and BBCECs were plated on the upper side of the filters in 2 mL of co-culture medium. This BBCEC medium was changed three times a week. Under these conditions, differentiated BBCECs formed a confluent monolayer 7 days later. Experiments were performed between 5 and 7 days after confluence was reached. The permeability coefficient for sucrose was measured to verify the endothelial permeability.
Briefly, after removing the meninges, the brain tissue was forced gently through an 82 μm nylon sieve. Astrocytes were plated on six-well microplates at a concentration of 1.2×10^5 cells/mL in 2 mL of optimal culture medium (DMEM) supplemented with 10% heat inactivated fetal bovine serum. The medium was changed twice a week.
Bovine brain capillary endothelial cells (BBCECs) were obtained from Cellial Technologies. The cells were cultured in the presence of DMEM medium supplemented with 10% (v/v) horse serum and 10% heat-inactivated calf serum, 2 mM of glutamine, 50 μg/mL of gentamycin, and 1 ng/mL of basic fibroblast growth factor, added every other day.
Each peptide was added to the upper side of the inserts covered or non-covered with endothelial cells for 90 minutes at 37° C. […] After 90 minutes of transcytosis, a volume of 50 μl from the basolateral side of the filters covered with endothelial cells (+) or non-covered (−) was also loaded on Tricine gels. To visualize the peptides gels were stained with Coomassie blue.

[2] = test system: in vitro model of the BBB (bovine brain capillary endothelial cells); experiment: Second level screening: [125I]-peptide passage in the in vitro BBB model (cpm ratios)
Description: This BBCEC medium was changed three times a week.
The medium was changed twice a week.
Briefly, the selected peptides were iodinated with standard procedures using iodo-beads from Sigma. Two iodo-beads were used for each protein. […] The iodination for each peptide was initiated by adding 100 μg (80-100 μl) of the bead suspension. […] Fractions of 0.5 ml were collected and the radioactivity in 5 μl of each fraction was measured.
The iodinated peptides were also investigated with the in vitro model of the BBB. […] Results were expressed as cpm ratios.

brain tumor model = settings: injected alone at the maximal tolerated dose (54 mg/kg); cited from earlier work
mouse brain = experiment: In situ cerebral perfusion with post-perfusion capillary depletion; type: in vivo, mice; settings: perfusion 5 min; for Volume of distribution, Capillaries % / Volume of distribution, Parenchyma %: share of homogenate; for Volume of distribution, Homogenate: total brain
From the text: The in situ cerebral perfusion (in mice) was used as the fourth level of selection to select the best peptides. This procedure also distinguishes between compounds remaining in the brain vascular compartment from those having crossed the abluminal endothelial membrane to enter the brain parenchyma. Indeed, the technique of post-perfusion capillary depletion allows to measure whether the molecule really crosses the endothelium to enter the brain parenchyma.

[3] = test system: in vitro BBB model (BBCEC monolayers grown on filters in the presence of astrocytes); experiment: Permeability coefficient (Pe) / transcytosis capacity in the in vitro BBB model; type: in vitro ADME, bovine; settings: third level of selection, peptide at 250 nM
Description: At different times, inserts were placed into another well.
Transcytosis capacity of Aprotinin-Paclitaxel conjugate was determined and is reported below in Table 5.

[4] = [125I]-peptide, cpm in bottom chamber / total cpm added, filter covered with endothelial cells, 90 minutes at 37° C.

Compound | Peptide detected in the lower side of the chambers by Coomassie blue staining [1] | Volume of distribution, Capillaries (mouse brain) [ml/100 g] | Volume of distribution, Capillaries % (mouse brain) [%] | Volume of distribution, Homogenate (mouse brain) [ml/100 g] | Permeability coefficient (Pe) [3] | other results
C[C@@H](O)[C@H](N)C(=O)N[C@@H](Cc1ccccc1)C(=O)N[C@@H](Cc1ccccc1)C(=O)N[C@@H](Cc1ccc(O)cc1)C(=O)NCC(=O)NCC(=O)N[C@@H](CO)C(=O)N[C@@H](CCCNC(=N)N)C(=O)NCC(=O)N[C@@H](CCCCN)C(=O)N[C@@H](CCCNC(=N)N)C(=O)N[C@@H](CC(N)=O)C(=O)N[C@@H](CC(N)=O)C(=O)N[C@@H](Cc1ccccc1)C(=O)N[C@@H](CCCCN)C(=O)N[C@H](C(=O)N[C@@H](CCC(=O)O)C(=O)N[C@@H](CCC(=O)O)C(=O)N[C@@H](Cc1ccc(O)cc1)C(=O)O)[C@@H](C)O [Peptide 70, T F F Y G G S R G K R N N F K T E E Y] | detected in the lower side of the chambers | – | – | – | – | –
C[C@@H](O)[C@H](NC(=O)[C@H](CCCCN)NC(=O)[C@H](Cc1ccccc1)NC(=O)[C@H](CC(N)=O)NC(=O)[C@H](CC(N)=O)NC(=O)[C@H](CCCNC(=N)N)NC(=O)[C@H](CCCCN)NC(=O)CNC(=O)[C@H](CCCNC(=N)N)NC(=O)[C@H](CS)NC(=O)[C@H](CS)NC(=O)CNC(=O)[C@H](Cc1ccc(O)cc1)NC(=O)[C@H](Cc1ccccc1)NC(=O)[C@H](Cc1ccccc1)NC(=O)[C@@H](NC(=O)[C@@H](N)CS)[C@@H](C)O)C(=O)N[C@@H](CCC(=O)O)C(=O)N[C@@H](CCC(=O)O)C(=O)N[C@@H](Cc1ccc(O)cc1)C(=O)O [Peptide 71, CTFFYGCCRGKRNNFKTEEY] (H-CTFFYGCCRGKRNNFKTEEY-OH; N-terminus and C-terminus assumed) | detected in the lower side of the chambers | – | – | – | – | Ratio −cells/initial [2]: 0.072; Ratio +cells/−cells ([2]; [125I]-peptide in bottom chamber of filters covered with vs without endothelial cells): 0.37; Ratio +cells/initial [2, 4]: 0.027
C[C@@H](O)[C@H](N)C(=O)N[C@@H](Cc1ccccc1)C(=O)N[C@@H](Cc1ccccc1)C(=O)N[C@@H](Cc1ccc(O)cc1)C(=O)NCC(=O)NCC(=O)N[C@@H](CS)C(=O)N[C@@H](CCCNC(=N)N)C(=O)NCC(=O)N[C@@H](CCCCN)C(=O)N[C@@H](CCCNC(=N)N)C(=O)N[C@@H](CC(N)=O)C(=O)N[C@@H](CC(N)=O)C(=O)N[C@@H](Cc1ccccc1)C(=O)N[C@@H](CCCCN)C(=O)N[C@H](C(=O)N[C@@H](CCC(=O)O)C(=O)N[C@@H](CCC(=O)O)C(=O)N[C@@H](Cc1ccc(O)cc1)C(=O)N[C@@H](CS)C(=O)O)[C@@H](C)O [Peptide 72, TFFYGGCRGKRNNFKTEEYC] (H-TFFYGGCRGKRNNFKTEEYC-OH; N-terminus and C-terminus assumed) | detected in the lower side of the chambers | – | – | – | – | –
C[C@@H](O)[C@H](NC(=O)[C@H](CCCCN)NC(=O)[C@H](Cc1ccccc1)NC(=O)[C@H](CC(N)=O)NC(=O)[C@H](CC(N)=O)NC(=O)[C@H](CCCNC(=N)N)NC(=O)[C@H](CCCCN)NC(=O)CNC(=O)[C@H](CCCNC(=N)N)NC(=O)[C@H](CS)NC(=O)[C@H](CO)NC(=O)CNC(=O)[C@H](Cc1ccc(O)cc1)NC(=O)[C@H](Cc1ccccc1)NC(=O)[C@H](Cc1ccccc1)NC(=O)[C@@H](NC(=O)[C@@H](N)CS)[C@@H](C)O)C(=O)N[C@@H](CCC(=O)O)C(=O)N[C@@H](CCC(=O)O)C(=O)N[C@@H](Cc1ccc(O)cc1)C(=O)O [Peptide 73, CTFFYGSCRGKRNNFKTEEY] (H-CTFFYGSCRGKRNNFKTEEY-OH; N-terminus and C-terminus assumed) | detected in the lower side of the chambers | – | – | – | – | –
CC(=O)O[C@H]1C(=O)[C@@]2(C)[C@H]([C@H](OC(=O)c3ccccc3)[C@]3(O)C[C@H](OC(=O)[C@H](O)[C@@H](NC(=O)c4ccccc4)c4ccccc4)C(C)=C1C3(C)C)[C@]1(OC(C)=O)CO[C@@H]1C[C@@H]2O [paclitaxel] | – | – | – | – | – | Mouse survival (brain tumor model): unable to increase mouse survival
PFFYGGCRGKRNNFKTEEY [Peptide 75, P F F Y G G C R G K R N N F K T E E Y] | detected in the lower side of the chambers | – | – | – | – | –
R F K Y G G C L G N K N N Y L R L K Y (RFKYGGCLGNKNNYLRLKY-NH2) [Peptide 91] | detected in the lower side of the chambers | 24 | 59 | 47 | highest Pe | Ratio +cells/initial [2]: 0.158; Ratio −cells/initial [2]: 0.406
RFKYGGCLGNKNNFLRLKY [Peptide 90, R F K Y G G C L G N K N N F L R L K Y] | detected in the lower side of the chambers | 76 | 88 | 87 | highest Pe | Volume of distribution, Parenchyma (mouse brain): 11 ml/100 g; Volume of distribution, Parenchyma % (mouse brain): 12%
T F F Y G G C R G K R N N F K T K E Y (TFFYGGCRGKRNNFKTKEY-NH2) [Peptide 76] | detected in the lower side of the chambers | 16 | 40 | 40 | highest Pe | Ratio +cells/initial [2]: 0.084; Ratio −cells/initial [2]: 0.222
TFFYGGCRAKRNNFKRAKY-NH2 [Peptide 5, T F F Y G G C R A K R N N F K R A K Y] | detected in the lower side of the chambers | 217 | 73 | 312 | highest Pe | Ratio +cells/initial [2, 4]: 0.051
TFFYGGCRGKKNNFKRAKY [Peptide 8, T F F Y G G C R G K K N N F K R A K Y] | detected in the lower side of the chambers | 204 | 82 | 250 | highest Pe | Volume of distribution, Parenchyma (mouse brain): 46 ml/100 g; Volume of distribution, Parenchyma % (mouse brain): 18%
TFFYGGCRGKRNNFKTEEY-NH2 [Peptide 67, T F F Y G G C R G K R N N F K T E E Y] | detected in the lower side of the chambers | 13 | 34 | 38 | highest Pe | –
TFFYGGCRGKRNNFKTKRY [Peptide 78, T F F Y G G C R G K R N N F K T K R Y] | detected in the lower side of the chambers | 181 | 90 | 198 | highest Pe | Volume of distribution, Parenchyma (mouse brain): 16 ml/100 g; Volume of distribution, Parenchyma % (mouse brain): 10%
TFFYGGCRGNRNNFLTAEY [Peptide 45, T F F Y G G C R G N R N N F L T A E Y] | detected in the lower side of the chambers | – | – | – | – | –
TFFYGGKRGKRNNFKRAKY [Peptide 82, T F F Y G G K R G K R N N F K R A K Y] | detected in the lower side of the chambers | – | – | – | – | –
TFFYGGKRGKRNNFKREKY [Peptide 81, T F F Y G G K R G K R N N F K R E K Y] | detected in the lower side of the chambers | – | – | – | – | –
TFFYGGKRGKRNNFKTAEY [Peptide 79, T F F Y G G K R G K R N N F K T A E Y] | detected in the lower side of the chambers | 52 | 74 | 70 | highest Pe | Volume of distribution, Parenchyma (mouse brain): 18 ml/100 g; Volume of distribution, Parenchyma % (mouse brain): 26%
TFFYGGKRGKRNNFKTEEY [Peptide 77, T F F Y G G K R G K R N N F K T E E Y] | detected in the lower side of the chambers | – | – | – | – | –
TFFYGGSRGNRNNFKTAKY [Peptide 25, T F F Y G G S R G N R N N F K T A K Y] | – | 1082 | 95 | 1141 | – | Volume of distribution, Parenchyma (mouse brain): 60 ml/100 g; Volume of distribution, Parenchyma % (mouse brain): 5%
